Tested on: KRAS patient-derived spheroids with HUVEC/MSC, viability
Test: Anticancer human tumor 941728-121-R-J1-PDC patient-derived lung adenocarcinoma cell line growth inhibition [KRAS2]
Details: for IC50: curve of first compound; for viability, T/C: stronger effect = lower value
From the text: Multicellular complex tumor spheroid response to RAS pathway inhibitors in combination with a targeted agents in patient-derived cell lines with oncogenic KRAS variants from multiple cancer types
A high-throughput screen of multi-cell type tumor spheroids was designed to identify active combinations of targeted small molecules and KRAS pathway inhibitors. Complex spheroids include a stromal component modeled by human endothelial cells (HUVEC) and fibroblasts modeled by human mesenchymal stem cells (MSCs). The concentration ranges selected for each drug and investigational agent were based upon clinically achievable concentrations if the clinical Cmax of the agent was known.
Compounds. The drugs and investigational agents: BI-3406 (NSC825286), BAY-293 (NSC824723), batoprotafib (TNO155; NSC825523), sotorasib (AMG 510; NSC818433), MRTX1257 (NSC819558), elimusertib (BAY 1895344; NSC800525), molibresib (GSK525762; NSC774829), temuterkib (LY3214996; NSC803410), venetoclax (NSC766270), alisertib (NSC759677), olaparib (NSC753686), talazoparib (NSC767125), erdafitinib (NSC781556), ipatasertib (NSC767898), cabozantinib (NSC761068), nintedanib (NSC756659), abemaciclib (NSC768073), docetaxel (NSC628503), trametinib (NSC758246), and sapanisertib (NSC764658) were obtained from the National Cancer Institute (NCI) Developmental Therapeutics Program Chemical Repository. The FDA-approved anticancer drug set is available from the Developmental Therapeutics Program. […] The stock solutions were prepared in dimethyl sulfoxide (DMSO, Sigma-Aldrich, St. Louis, MO, cat. D2650) at 800-fold the tested concentration and stored at -70 degrees C prior to their use. All drugs and investigational agents were tested over a range starting from a high concentration at or near the clinical Cmax and decreasing in half-log increments. If the clinical Cmax for an agent had not been determined, the highest concentration tested was 10 microM.
Cell Culture. All cells were maintained in an incubator at 37 degrees C and 5% CO2 with 95% humidity. The PDC lines were cultured according to standard operating procedures established by the NCI PDMR (https://pdmr.cancer.gov/sops/default.htm). Briefly, all PDCs were thawed and cultured in Matrigel-coated flasks prepared with a working solution of 1X Ham's F-12 nutrient mix, without supplementation (Invitrogen, Waltham, MA, cat. 11765054), 100 U/mL penicillin-streptomycin (Invitrogen, cat. 15140122), and 2.5% Matrigel (Corning Inc., Corning, NY, cat. 354248) for the first three passages. All PDCs were cultured in complete DMEM/F-12 media containing advanced DMEM/F-12 (Invitrogen, cat. 12634028), 4.9% defined fetal bovine serum, heat inactivated (HyClone Laboratories Inc., Logan, UT, cat. SH30070.03HI), 389 ng/mL hydrocortisone (Sigma-Aldrich, cat. H4001), 9.7 ng/mL human EGF recombinant protein (Invitrogen, cat. PHG0313), 23.4 microg/mL adenine (Sigma-Aldrich, cat. A2786), 97.3 U/mL penicillin-streptomycin (Invitrogen, cat. 15140122), 1.9 mM L-glutamine (Invitrogen, cat. 25030081), and 9.7 microM Y-27632 dihydrochloride (Tocris Bioscience, Bristol, United Kingdom, cat. 1254). The PDCs were cultured in complete DMEM/F12 media without 9.7 microM Y-27632 dihydrochloride for at least two passages prior to the screen. The established cell line HOP-62 was cultured in RPMI 1640 medium, HEPES (Invitrogen, cat. 22400105) with 10% defined fetal bovine serum (HyClone Laboratories Inc., cat. SH30070.03) and 2 mM L-glutamine (Invitrogen, cat. 25030081). The pooled donor HUVEC were cultured in endothelial cell growth medium 2 (PromoCell, Heidelberg, Germany, cat. C-22011) and the hMSC were cultured in mesenchymal stem cell growth medium 2 (PromoCell, cat. C-28009). For all experiments, HUVEC and hMSC were used at passages </=5, while the malignant cell lines were used at passages </=15. […]

[1] = second compound 0.1 µM, first compound 0.0316 µM
[2] = second compound 0.1 µM, first compound 0.1 µM
[3] = second compound 0.1 µM, first compound 0.316 µM
[4] = second compound 0.1 µM, first compound 1 µM
[5] = second compound 0.1 µM, first compound 3.16 µM
[6] = second compound 0.1 µM, first compound 10 µM
[7] = second compound 0.316 µM, first compound 0.0316 µM
[8] = second compound 0.316 µM, first compound 0.1 µM
[9] = second compound 0.316 µM, first compound 0.316 µM
[10] = second compound 0.316 µM, first compound 1 µM
[11] = second compound 0.316 µM, first compound 3.16 µM
[12] = second compound 0.316 µM, first compound 10 µM
[13] = second compound 1 µM, first compound 0.0316 µM
[14] = second compound 1 µM, first compound 0.1 µM
[15] = second compound 1 µM, first compound 0.316 µM
[16] = second compound 1 µM, first compound 1 µM
[17] = second compound 1 µM, first compound 3.16 µM
[18] = second compound 1 µM, first compound 10 µM
[19] = second compound 3.16 µM, first compound 0.0316 µM
[20] = second compound 3.16 µM, first compound 0.1 µM
[21] = second compound 3.16 µM, first compound 0.316 µM
[22] = second compound 3.16 µM, first compound 1 µM
[23] = second compound 3.16 µM, first compound 3.16 µM
[24] = second compound 3.16 µM, first compound 10 µM
[25] = second compound 10 µM, first compound 0.0316 µM
[26] = second compound 10 µM, first compound 0.1 µM
[27] = second compound 10 µM, first compound 0.316 µM
[28] = second compound 10 µM, first compound 1 µM
[29] = second compound 10 µM, first compound 3.16 µM
[30] = second compound 10 µM, first compound 10 µM
[31] = second compound 0.1 µM, first compound 0.00316 µM
[32] = second compound 0.1 µM, first compound 0.01 µM
[33] = second compound 0.316 µM, first compound 0.00316 µM
[34] = second compound 0.316 µM, first compound 0.01 µM
[35] = second compound 1 µM, first compound 0.00316 µM
[36] = second compound 1 µM, first compound 0.01 µM
[37] = second compound 3.16 µM, first compound 0.00316 µM
[38] = second compound 3.16 µM, first compound 0.01 µM
[39] = second compound 10 µM, first compound 0.00316 µM
[40] = second compound 10 µM, first compound 0.01 µM
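Further: spheroids exposed to agents for seven days before readout.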

CC(C)NCC(C(=O)N1CCN(c2ncnc3c2C(C)CC3O)CC1)c1ccc(Cl)cc1 (stereo not given) + C=CC(=O)N1CCN(c2nc(=O)n(-c3c(C)ccnc3C(C)C)c3nc(-c4c(O)cccc4F)c(F)cc23)C(C)C1
IC50 (second compound 0.1 µM): < 31.6 nM
IC50 (second compound 0.316 µM): < 31.6 nM
IC50 (second compound 1 µM): < 31.6 nM
IC50 (second compound 3.16 µM): < 31.6 nM
IC50 (second compound 10 µM): < 31.6 nM
viability, T/C [1]: 19.7%
viability, T/C [2]: 20.1%
viability, T/C [3]: 19.6%
viability, T/C [4]: 15.3%
viability, T/C [5]: 9.91%
viability, T/C [6]: 4.14%
viability, T/C [7]: 24.7%
viability, T/C [8]: 19.5%
viability, T/C [9]: 20%
viability, T/C [10]: 15.2%
viability, T/C [11]: 9.83%
viability, T/C [12]: 4.08%
viability, T/C [13]: 22.6%
viability, T/C [14]: 22.4%
viability, T/C [15]: 13.9%
viability, T/C [16]: 16%
viability, T/C [17]: 12%
viability, T/C [18]: 5.09%
viability, T/C [19]: 24.1%
viability, T/C [20]: 25.8%
viability, T/C [21]: 20.3%
viability, T/C [22]: 16%
viability, T/C [23]: 10.6%
viability, T/C [24]: 4.7%
viability, T/C [25]: 25.9%
viability, T/C [26]: 21.5%
viability, T/C [27]: 18.6%
viability, T/C [28]: 14.9%
viability, T/C [29]: 6.4%
viability, T/C [30]: 4.57%

CC1(C)CCC(CN2CCN(c3ccc(C(=O)NS(=O)(=O)c4ccc(NCC5CCOCC5)c([N+](=O)[O-])c4)c(Oc4cnc5[nH]ccc5c4)c3)CC2)=C(c2ccc(Cl)cc2)C1 + C=CC(=O)N1CCN(c2nc(=O)n(-c3c(C)ccnc3C(C)C)c3nc(-c4c(O)cccc4F)c(F)cc23)C(C)C1
IC50 (second compound 0.1 µM): < 31.6 nM
IC50 (second compound 0.316 µM): < 31.6 nM
IC50 (second compound 1 µM): < 31.6 nM
IC50 (second compound 3.16 µM): < 31.6 nM
IC50 (second compound 10 µM): < 31.6 nM
viability, T/C [1]: 20.2%
viability, T/C [2]: 17.6%
viability, T/C [3]: 17.8%
viability, T/C [4]: 17.4%
viability, T/C [5]: 7.67%
viability, T/C [6]: 2.7%
viability, T/C [7]: 18.6%
viability, T/C [8]: 16.1%
viability, T/C [9]: 16.4%
viability, T/C [10]: 16.3%
viability, T/C [11]: 9.65%
viability, T/C [12]: 4.02%
viability, T/C [13]: 20.8%
viability, T/C [14]: 19.7%
viability, T/C [15]: 29.4%
viability, T/C [16]: 17%
viability, T/C [17]: 13.2%
viability, T/C [18]: 4.29%
viability, T/C [19]: 19.3%
viability, T/C [20]: 16.4%
viability, T/C [21]: 22.5%
viability, T/C [22]: 18.2%
viability, T/C [23]: 15.2%
viability, T/C [24]: 4.62%
viability, T/C [25]: 25.3%
viability, T/C [26]: 24.8%
viability, T/C [27]: 25.7%
viability, T/C [28]: 22.4%
viability, T/C [29]: 8.54%
viability, T/C [30]: 8.81%

CCN1CCN(Cc2ccc(Nc3ncc(F)c(-c4cc(F)c5nc(C)n(C(C)C)c5c4)n3)nc2)CC1 + C=CC(=O)N1CCN(c2nc(=O)n(-c3c(C)ccnc3C(C)C)c3nc(-c4c(O)cccc4F)c(F)cc23)C(C)C1
IC50 (second compound 0.1 µM): < 3.16 nM
IC50 (second compound 0.316 µM): < 3.16 nM
IC50 (second compound 1 µM): < 3.16 nM
IC50 (second compound 3.16 µM): < 3.16 nM
IC50 (second compound 10 µM): < 3.16 nM
viability, T/C [31]: 17.4%
viability, T/C [32]: 18.3%
viability, T/C [1]: 16.5%
viability, T/C [2]: 15.9%
viability, T/C [3]: 15.1%
viability, T/C [4]: 18.5%
viability, T/C [33]: 19.1%
viability, T/C [34]: 18.1%
viability, T/C [7]: 17.1%
viability, T/C [8]: 16.8%
viability, T/C [9]: 14.7%
viability, T/C [10]: 15.9%
viability, T/C [35]: 22.2%
viability, T/C [36]: 22.2%
viability, T/C [13]: 19.5%
viability, T/C [14]: 17.1%
viability, T/C [15]: 17.2%
viability, T/C [16]: 19.8%
viability, T/C [37]: 22.7%
viability, T/C [38]: 24.2%
viability, T/C [19]: 19.6%
viability, T/C [20]: 18.9%
viability, T/C [21]: 21.9%
viability, T/C [22]: 19.2%
viability, T/C [39]: 27.8%
viability, T/C [40]: 29.9%
viability, T/C [25]: 25%
viability, T/C [26]: 29.8%
viability, T/C [27]: 27.9%
viability, T/C [28]: 16.3%

Cn1ncnc1[C@H]1c2n[nH]c(=O)c3cc(F)cc(c23)N[C@@H]1c1ccc(F)cc1 + C=CC(=O)N1CCN(c2nc(=O)n(-c3c(C)ccnc3C(C)C)c3nc(-c4c(O)cccc4F)c(F)cc23)C(C)C1
IC50 (second compound 0.1 µM): < 0.316 nM
IC50 (second compound 0.316 µM): < 0.316 nM
IC50 (second compound 1 µM): < 0.316 nM
IC50 (second compound 3.16 µM): < 0.316 nM
IC50 (second compound 10 µM): < 0.316 nM
viability, T/C (second compound 0.1 µM, first compound 0.000316 µM): 14.7%
viability, T/C (second compound 0.1 µM, first compound 0.001 µM): 15.4%
viability, T/C [31]: 13.9%
viability, T/C [32]: 13.6%
viability, T/C [1]: 13.5%
viability, T/C [2]: 13.9%
viability, T/C (second compound 0.316 µM, first compound 0.000316 µM): 17.4%
viability, T/C (second compound 0.316 µM, first compound 0.001 µM): 14.9%
viability, T/C [33]: 15.3%
viability, T/C [34]: 14.8%
viability, T/C [7]: 14.1%
viability, T/C [8]: 14.1%
viability, T/C (second compound 1 µM, first compound 0.000316 µM): 16%
viability, T/C (second compound 1 µM, first compound 0.001 µM): 15.5%
viability, T/C [35]: 17.6%
viability, T/C [36]: 15.9%
viability, T/C [13]: 15.9%
viability, T/C [14]: 15.2%
viability, T/C (second compound 3.16 µM, first compound 0.000316 µM): 15.8%
viability, T/C (second compound 3.16 µM, first compound 0.001 µM): 18.3%
viability, T/C [37]: 15.4%
viability, T/C [38]: 17.4%
viability, T/C [19]: 13.6%
viability, T/C [20]: 14.9%
viability, T/C (second compound 10 µM, first compound 0.000316 µM): 17.9%
viability, T/C (second compound 10 µM, first compound 0.001 µM): 20.1%
viability, T/C [39]: 17.3%
viability, T/C [40]: 17.3%
viability, T/C [25]: 18.1%
viability, T/C [26]: 16.7%
